Assay results reported in US11479536B1 (King Abdulaziz University, priority 2022, dated 2022).
“And” between values parts separate entries of the source, which are not always exact repeats. Equal values may be shown once. One block for each compound: values may come before it.

Experiments:
AMPK (A1/B1/G2) = target: T1, AMPK (A1/B1/G2) (Homo sapiens, UniProt Q13131+Q9UGJ0+Q9Y478); assay: Cell-free AMPK inhibition assay, AMPK (A1/B1/G2) Kinase Enzyme system; assay type: biochemical; conditions: recombinant full-length human AMPK
T1 construct: This system includes a recombinant full-length human AMPK enzyme; purchased Promega
Description: The inhibitory effect of serial concentrations of MAK compounds on AMPK Kinase activity was investigated using the highly sensitive AMPK (A1/B1/G2) Kinase Enzyme assay system (Promega, Madison Wis. USA). This system includes a recombinant full-length human AMPK enzyme and a substrate for the enzyme. The experiment was conducted according to the manufacturer's instructions in the provided protocol. Mean values of replicates were calculated in comparison to the control group.

MCF7 spheroids [1] = assay: Cytotoxicity assay (MTT) in spheroid culture, MCF7; assay type: cell-based, human
Description: (§1) 1×10^4 cells of each cell line (MCF7 and T47D) were seeded into ultra-low attachment 96 well plate at 37° C. and grown for 48 hours in DMEM media to result in the formation of spheroids. Then, the cells were subjected to the different treatment conditions before performing the assays.
(§2) The cytotoxic effects of MAK compounds were assessed against MCF7 and T47D cell lines using MTT cell viability assay. The cells were treated for 48 hours with different concentrations of each MAK compound and the control cells were subjected to the vehicle (0.1% DMSO). Then, 10% of 5 mg/mL MTT was added to each well containing treated or control cells, and mixture was incubated at 37° C. for 3 hours. After that, the MTT-containing media was replaced with 100 μL DMSO and incubated for 10 minutes at room temperature before measuring the absorbance for each well at 570 nm. According to the measured absorbance, the IC50 was calculated for each compound. All the experiments were performed in biological and experimental replicates.

T47D spheroids [2] = assay: Cytotoxicity assay (MTT) in spheroid culture, T47D; assay type: cell-based, human
Description: as §1, §2

MCF7 spheroids [3] = assay: Mitochondrial membrane potential assay (JC-1), MCF7 spheroids; assay type: cell-based, human; conditions: 48 h post treatment at IC50, control 18.01±0.58%
Description: (§3) The mitochondrial membrane potential was investigated in response to the treatment with MAK compounds. This assay depends on the measurement of the aggregate fluorescence for Tetraethylbenzimidazolylcarbocyanine iodide (JC-1). This cationic dye accumulates in the energized mitochondria, and the increase in aggregate fluorescence indicates mitochondrial […] while the reduction indicates the depolarization state.
(§4) After growing the cells and treating them with MAK compound for 48 hours, 2 μM of JC-1 final concentration was added and the mixture was incubated for 1 hour at 37° C. in presence of 5% CO2. Then, the samples were analyzed using flow cytometry. Mean values and standard deviation of replicates were calculated in comparison to the control group.

T47D spheroids [4] = assay: Mitochondrial membrane potential assay (JC-1), T47D spheroids; assay type: cell-based, human; conditions: 48 h post treatment at IC50, control 15.67±2.05%
Description: as §3, §4

MCF7 spheroids [5] = assay: Live and dead assay of tumor spheroids, MCF7; assay type: cell-based, human; conditions: 48 h post treatment, control 10.33±2.40%
Description: (§5) The Live/Dead assay contains a mixture of two staining fluorescent dyes that label live and dead cells to enable differentiation between them. The cell viability of the cells in response to the treatment with MAK compounds was examined. The cells were grown for 48 hours and treated with MAK compound for additional 48 hours, then Cytox RED solution reagent was added. After incubation at 37° C. under 5% CO2 for 1 hour, the samples were immediately analyzed by flow cytometry. Mean values and standard deviation of replicates were calculated in comparison to the control group.

T47D spheroids [6] = assay: Live and dead assay of tumor spheroids, T47D; assay type: cell-based, human; conditions: 48 h post treatment, control 2.60±0.31%
Description: as §5

MCF7 spheroids [7] = assay: Reactive oxygen species (CellROX) assay, MCF7 spheroids; assay type: cell-based, human; conditions: 48 h treatment, CellROX Green
Description: (§6) The CELLROX (Invitrogen) assay was used to measure the level of reactive oxygen species (ROS) in live cells. […] The technique was used to investigate the capability of tested compounds to induce intracellular ROS. After forming the spheroids for 48 hours and treating them for additional 48 hours with MAK compound, spheroids were incubated in culture medium with 500 nM CellROX for 60 minutes at 37° C. in presence of 5% CO2, and the samples were immediately analyzed on flow cytometry using 488-nm excitation for the CellROX® Green.

T47D spheroids [8] = assay: Reactive oxygen species (CellROX) assay, T47D spheroids; assay type: cell-based, human; conditions: 48 h treatment, CellROX Green
Description: as §6

MCF7 cell line = assay: Cytotoxic assay (MTT) in monolayer model, MCF7; assay type: cell-based; conditions: Homo sapiens, 48 h, read-out: IC50 MCF-7 cell line inhibition, monolayer
Description: (§7) 1×10^6 cells of the human breast cancer cell lines MCF7 and T47D were seeded and grown at 37° C. with 5% CO2, in a Dulbecco's Modified Eagle Medium (DMEM) with 10% fetal bovine serum (Sigma). The cells were maintained until they reached the confluence over 90%. Then, the cells were subjected to the different treatment conditions before performing the assays.
as §2

T47D cell line = assay: Cytotoxic assay (MTT) in monolayer model, T47D; assay type: cell-based; conditions: Homo sapiens, 48 h, read-out: IC50 cytotoxic assay against T47D, monolayer
Description: as §7, §2

[9] = test system: human skin fibroblasts (HSF); assay: Cytotoxicity on human skin fibroblasts (SRB method); assay type: cell-based; conditions: HSF, SRB, 72 h
Description: In addition to have a good physicochemical profile, it is important for a studied lead to differentiate between cancer cells and highly proliferating non-cancerous cells. Therefore, we assessed compounds MAK-1 and MAK-6 for both the in silico and in vitro physicochemical characteristics as well as for cytotoxic effect on human skin fibroblasts (SKF) cell lines. Cytotoxicity was determined using Sulforhodamine B (SRB) method. Exponentially growing human skin fibroblast cells (Nawah Scientific, Cairo, Egypt) were collected using 0.25% Trypsin-EDTA and were then seeded in 96-well plates at a density of 1000-2000 cells/well in 10% FBS and penicillin/streptomycin supplemented RPMI-1640 medium. After 24 h, cells were treated with different concentrations of test compounds and incubated for 72 h at 37° C. in a humidified atmosphere containing 5% CO2. Next, the cells were fixed by adding trichloroacetic acid (TCA, 10% final conc. in wells) directly to the wells and incubated for 1 h at 4° C., then cells were washed with distilled water 5 times to remove excess TCA, media, serum proteins, and metabolites, followed by air drying. After that, the fixed cells were stained with 0.4% SRB dissolved in 1% acetic acid for 10 min at room temperature, and excess stain was removed by quickly rinsing with 1% acetic acid. The residual acetic acid was removed completely by air drying the plates for 24 h, and the dye was solubilized with Tris buffer (pH=7.4, 10 mM) for 5 min on a shaker at 1600 rpm. The optical density (OD) of each well was measured spectrophotometrically at 564 nm with an ELISA microplate reader (ChroMate-4300, FL, USA). The IC50 values were calculated according to the equation for Boltzman sigmoidal concentration—response curve using the nonlinear regression fitting models (Graph Pad, Prism Version 5).

MCF7 cell lines = assay: Cytotoxic assays of KAC-12 on breast cancer MCF7 cell lines; assay type: cell-based, human
AMPK (phospho-protein) = conditions: concentration not given; cited from earlier work

T1 sequence (Q13131 whole entry): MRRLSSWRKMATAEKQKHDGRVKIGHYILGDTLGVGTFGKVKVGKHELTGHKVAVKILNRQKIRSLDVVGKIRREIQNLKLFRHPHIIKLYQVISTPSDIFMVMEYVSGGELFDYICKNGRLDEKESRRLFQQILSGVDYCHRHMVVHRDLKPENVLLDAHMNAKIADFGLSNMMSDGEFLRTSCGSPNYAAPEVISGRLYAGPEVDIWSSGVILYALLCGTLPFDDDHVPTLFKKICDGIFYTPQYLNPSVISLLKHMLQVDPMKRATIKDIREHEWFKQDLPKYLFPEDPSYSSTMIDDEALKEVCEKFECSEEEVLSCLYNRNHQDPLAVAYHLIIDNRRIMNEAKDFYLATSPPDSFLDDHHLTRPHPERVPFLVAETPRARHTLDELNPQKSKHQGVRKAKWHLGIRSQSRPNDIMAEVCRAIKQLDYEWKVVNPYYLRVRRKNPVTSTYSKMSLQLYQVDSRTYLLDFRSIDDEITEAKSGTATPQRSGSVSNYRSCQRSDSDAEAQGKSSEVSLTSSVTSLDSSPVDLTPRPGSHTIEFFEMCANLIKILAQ
T1 sequence (Q9Y478 whole entry partner): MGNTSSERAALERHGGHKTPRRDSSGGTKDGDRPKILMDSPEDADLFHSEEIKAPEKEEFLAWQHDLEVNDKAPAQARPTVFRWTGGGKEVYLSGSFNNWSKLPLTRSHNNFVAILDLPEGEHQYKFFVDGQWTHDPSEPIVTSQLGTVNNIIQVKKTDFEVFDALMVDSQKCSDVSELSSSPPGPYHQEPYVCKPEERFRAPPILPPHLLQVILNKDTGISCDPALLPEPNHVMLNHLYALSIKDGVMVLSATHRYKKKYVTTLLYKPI
T1 sequence (Q9UGJ0 whole entry partner): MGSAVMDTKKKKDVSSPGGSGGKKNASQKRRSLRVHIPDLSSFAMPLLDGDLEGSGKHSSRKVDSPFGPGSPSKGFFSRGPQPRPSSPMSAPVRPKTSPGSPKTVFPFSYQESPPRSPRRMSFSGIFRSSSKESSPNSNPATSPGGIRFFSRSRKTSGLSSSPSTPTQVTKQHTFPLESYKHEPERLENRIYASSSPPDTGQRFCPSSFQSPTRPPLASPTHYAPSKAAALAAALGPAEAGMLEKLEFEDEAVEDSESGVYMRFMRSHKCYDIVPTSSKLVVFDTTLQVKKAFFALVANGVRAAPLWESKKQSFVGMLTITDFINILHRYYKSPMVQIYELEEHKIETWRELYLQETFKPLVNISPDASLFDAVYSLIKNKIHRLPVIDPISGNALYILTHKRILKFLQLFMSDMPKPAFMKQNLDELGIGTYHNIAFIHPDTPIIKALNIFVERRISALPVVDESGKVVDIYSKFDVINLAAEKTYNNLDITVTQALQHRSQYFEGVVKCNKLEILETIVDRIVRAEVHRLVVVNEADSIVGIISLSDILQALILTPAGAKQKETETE

SMILES: COc1cccc(C(=O)Nc2cccnc2CC(=O)NCc2ccccc2)c1
- IC50 (AMPK (A1/B1/G2)): 5.8 nM
- IC50 (MCF7 spheroids [1]; Homo sapiens, MCF7, 3D spheroid model, 48 h, MTT): 19600 ± 525 nM
- reduction of spheroid size (MCF7 spheroids [1]; MCF7 spheroids treated at IC50 for 48 h, vs control): noticeable reduction
- IC50 (T47D spheroids [2]; Homo sapiens, T47D, 3D spheroid model, 48 h, MTT): 3720 ± 30 nM
- reduction of spheroid size (T47D spheroids [2]; T47D spheroids treated at IC50 for 48 h, vs control): noticeable reduction
- depolarized cells (mitochondrial membrane), mean±SEM (MCF7 spheroids [3]): 34.00±0.87%
- depolarized cells (mitochondrial membrane), mean±SEM (T47D spheroids [4]): 36.77±0.65%
- dead rate (dead cells), mean±SEM (MCF7 spheroids [5]): 36.48±0.39%
- dead rate (dead cells), mean±SEM (T47D spheroids [6]): 32.10±0.56%
- ROS level, treatment vs control (MCF7 spheroids [7]): 25%
- ROS level, treatment vs control (T47D spheroids [8]): 30%
- IC50 (MCF7 cell line): 148 nM
- IC50 (T47D cell line): 97 nM
- safety to normal cells (human skin fibroblasts) [9]: highly safe

SMILES: O=C(Cc1ccc(NC(=O)c2cccc(Cl)c2)cc1)NCc1ccccc1 [KAC-12]
- IC50 (MCF7 cell lines): 47700 nM
- downregulation of the activated AMPK signal (phosphoprotein) (AMPK (phospho-protein)): 15% and 13%

SMILES: O=C(Cc1ccc(NC(=O)c2cccc(OCCN3CCOCC3)c2)cc1)NCc1ccccc1 [MAK-3, N-(4-(2-(benzylamino)-2-oxoethyl)phenyl)-3-(2-morpholinoethoxy)benzamide]
- IC50 (T47D cell line): 1 nM

The next lines start with results.

- melting point: 215 °C
SMILES: COc1ccc(C(=O)Nc2ccc(CC(=O)NCc3ccccc3)cc2)cc1OC [MAK-2, N-(4-(2-(benzylamino)-2-oxoethyl)phenyl)-3,4-dimethoxybenzamide]
- IC50 (MCF7 cell line): 6 nM

- melting point: 186 °C
SMILES: COc1ccc(C(=O)Nc2ccc(CC(=O)NCc3ccccc3)cc2)cc1Cl [MAK-4, N-(4-(2-(benzylamino)-2-oxoethyl)phenyl)-3-chloro-4-methoxybenzamide]
- IC50 (MCF7 cell line): 225 nM

- melting point: 147 °C
SMILES: O=C(Cc1ccc(NC(=O)c2ccc(OCCN3CCOCC3)c(Cl)c2)cc1)NCc1ccccc1 [MAK-5, N-(4-(2-(benzylamino)-2-oxoethyl)phenyl)-3-chloro-4-(2-morpholinoethoxy)benzamide]

- melting point: 231 °C
SMILES: O=C(Cc1ccc(NC(=O)c2cncc(Cl)c2)cc1)NCc1ccccc1 [MAK-9, N-(4-(2-(benzylamino)-2-oxoethyl)phenyl)-5-chloronicotinamide]

- melting point: 217 °C
SMILES: O=C(Cc1ccc(NC(=O)c2ccc(Cl)o2)cc1)NCc1ccccc1 [MAK-10, N-(4-(2-(benzylamino)-2-oxoethyl)phenyl)-5-chlorofuran-2-carboxamide]
- IC50 (MCF7 cell line): 225 nM
